Article PMC1500811, “Neofunctionalization in Vertebrates: The Example of Retinoic Acid Receptors” (PLoS Genetics, 2006)

Key:
xRARγ = molecular target: T1, xRARγ (Xenopus laevis, UniProt P28699); experiment: Gal4-RAR(LBD) luciferase transactivation in Cos-1 cells; assay type: cell-based; settings: agonist; one collective range given for all chordate RARs
T1 construct: gene rarg; LBD fused to Gal4 residues 1-147; in vitro translated for proteolysis
T1 sequence (P28699 166-476 limits assumed): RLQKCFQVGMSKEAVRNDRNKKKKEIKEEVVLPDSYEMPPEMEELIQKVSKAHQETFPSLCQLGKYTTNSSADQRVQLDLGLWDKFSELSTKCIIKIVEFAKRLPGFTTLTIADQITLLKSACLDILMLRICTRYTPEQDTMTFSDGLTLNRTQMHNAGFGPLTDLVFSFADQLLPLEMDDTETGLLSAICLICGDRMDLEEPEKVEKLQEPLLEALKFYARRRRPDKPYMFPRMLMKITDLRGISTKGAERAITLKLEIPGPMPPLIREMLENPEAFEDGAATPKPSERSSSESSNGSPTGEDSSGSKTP

AmphiRAR [1] = molecular target: T2, AmphiRAR (Branchiostoma floridae, UniProt Q8MX80); experiment: as above; assay type: cell-based; parameters: LBD from Ser154 fused to Gal4 residues 1-147; settings: agonist; one collective range given for all chordate RARs
T2 sequence (Q8MX80 entry or part of it): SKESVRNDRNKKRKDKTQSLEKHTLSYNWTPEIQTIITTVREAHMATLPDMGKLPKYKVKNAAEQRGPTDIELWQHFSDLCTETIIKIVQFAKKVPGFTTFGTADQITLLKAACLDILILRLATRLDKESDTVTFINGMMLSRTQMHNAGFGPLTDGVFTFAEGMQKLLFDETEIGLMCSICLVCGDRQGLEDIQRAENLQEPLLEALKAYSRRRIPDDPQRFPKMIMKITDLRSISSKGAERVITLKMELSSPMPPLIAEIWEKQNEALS

PmRAR [2] = molecular target: T3, PmRAR (Polyandrocarpa misakiensis, UniProt K7ZRU3); experiment: as above; assay type: cell-based; parameters: gene Pm-RAR; LBD fused to Gal4 residues 1-147; settings: agonist; one collective range given for all chordate RARs
T3 sequence (K7ZRU3 208-503 limits assumed): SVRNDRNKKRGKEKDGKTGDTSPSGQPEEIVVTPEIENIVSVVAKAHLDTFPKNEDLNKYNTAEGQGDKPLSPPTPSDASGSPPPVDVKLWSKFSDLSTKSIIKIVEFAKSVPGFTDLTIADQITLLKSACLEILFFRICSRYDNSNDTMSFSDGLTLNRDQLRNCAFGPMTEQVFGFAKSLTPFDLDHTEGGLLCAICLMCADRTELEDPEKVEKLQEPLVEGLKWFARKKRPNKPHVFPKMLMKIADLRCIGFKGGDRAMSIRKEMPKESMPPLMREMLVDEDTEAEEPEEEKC

AncRAR = tested on: T4, AncRAR; experiment: as above; assay type: cell-based, synthetic construct; settings: agonist; one collective range given for all chordate RARs
T4 construct: maximum-likelihood reconstructed LBD fused to Gal4 residues 1-147
Description: Gal4-RAR(LBD) luciferase transactivation in Cos-1 cells on AncRAR | all the chordate RARs, including the reconstructed AncRAR, are able to transactivate in a dose-dependent manner

xRARα = molecular target: T5, xRARα (Xenopus laevis, UniProt P51126); experiment: as above; assay type: cell-based; settings: agonist; one collective range given for all chordate RARs
T5 construct: gene rara; LBD fused to Gal4 residues 1-147; in vitro translated for proteolysis
T5 sequence (P51126 155-458 limits assumed): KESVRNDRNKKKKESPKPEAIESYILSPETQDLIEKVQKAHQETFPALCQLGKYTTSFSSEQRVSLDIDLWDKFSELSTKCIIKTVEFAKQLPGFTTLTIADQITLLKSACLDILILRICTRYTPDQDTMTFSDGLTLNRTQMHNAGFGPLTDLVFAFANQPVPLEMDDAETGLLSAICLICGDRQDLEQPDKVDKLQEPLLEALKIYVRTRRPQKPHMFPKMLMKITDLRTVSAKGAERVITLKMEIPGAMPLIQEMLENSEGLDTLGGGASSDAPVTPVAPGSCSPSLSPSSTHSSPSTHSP

zfRARα = tested on: T6, zfRARα; experiment: as above; assay type: cell-based, Danio rerio; settings: agonist; one collective range given for all chordate RARs
T6 construct: gene raraa; LBD fused to Gal4 residues 1-147; in vitro translated for proteolysis

zfRARγ = tested on: T7, zfRARγ; experiment: as above; assay type: cell-based, Danio rerio; settings: agonist; one collective range given for all chordate RARs
T7 construct: gene rarga; LBD fused to Gal4 residues 1-147; in vitro translated for proteolysis

xRARβ = tested on: T8, xRARβ; experiment: as above; assay type: cell-based, Xenopus laevis; settings: agonist; one collective range given for all chordate RARs
T8 construct: gene rarb; LBD fused to Gal4 residues 1-147; in vitro translated for proteolysis

PmRAR [3] = molecular target: T3, PmRAR; experiment: limited trypsin proteolysis of in vitro-translated receptor; assay type: binding; parameters: gene Pm-RAR; LBD fused to Gal4 residues 1-147; in vitro translated for proteolysis; settings: ligand 10^-4 to 10^-5 M, room temperature
AmphiRAR [4] = molecular target: T2, AmphiRAR; experiment: as above; assay type: binding; parameters: LBD from Ser154 fused to Gal4 residues 1-147; in vitro translated for proteolysis; settings: ligand 10^-4 to 10^-5 M, room temperature

With `CC1=C(/C=C/C(C)=C/C=C/C(C)=C/C(=O)O)C(C)(C)CCC1` [ATRA] as the compound, how does the EC50 (xRARγ) read?
Its EC50 is ~ 10^−9 to 10^−8 M.

And the EC50 (AmphiRAR [1])?
Its EC50 is ~ 10^−9 to 10^−8 M.

What about the EC50 (PmRAR [2]) of the same compound?
Its EC50 is ~ 10^−9 to 10^−8 M.

What about the EC50 (AncRAR) of the same compound?
The EC50 was ~ 10^−9 to 10^−8 M.

What about the EC50 (xRARα) of the same compound?
The EC50 was ~ 10^−9 to 10^−8 M.

What about the EC50 (zfRARα) of the same compound?
Its EC50 is ~ 10^−9 to 10^−8 M.

And the EC50 (zfRARγ)?
The EC50 was ~ 10^−9 to 10^−8 M.

And the EC50 (xRARβ)?
The EC50 was ~ 10^−9 to 10^−8 M.

Which “limited trypsin proteolysis of in vitro-translated receptor” value (PmRAR [3]) does the source give for `CC1(C)CC=C(c2ccccc2)c2cc(/C=C/c3ccc(C(=O)O)cc3Cl)ccc21` [BMS641] here?
The value was “both PmRAR and AncRAR are able to bind weakly the β-specific retinoid (BMS641)”.

For `CC1(C)C(=O)C(C)(C)c2cc(C(=O)Nc3ccc(C(=O)O)cc3)ccc21` [BMS753], which “limited trypsin proteolysis of in vitro-translated receptor” value (AmphiRAR [4]) is on record?
The value was “It also binds the α-specific compound (BMS753) (Figure 4F)”.
